Drawing on patent publication US11524960B2, “Heterobicyclic inhibitors of MAT2A and methods of use for treating cancer” (AGIOS PHARMACEUTICALS, INC., priority 2018, dated 2022), this text covers IC50 for 17 molecules.

For one experiment, the target named is T1, MAT2A homodimer (Homo sapiens, UniProt P31153).
T1 construct: inferred from Ni sepharose purification and imidazole elution; made in house; host or cells: Sf9 insect cells, recombinant baculovirus (Bac to Bac, pFASTBAC1)
Description: Biochemical assay: inhibition of MAT2A (phosphate release, PiColorLock Gold). The settings on record: MAT2A IC50 score; read-out: Enzyme Inhibition (Example 275). As to the method:
Mat2A protein was expressed by recombinant baculovirus in SF9 infected cells using the Bac to Bac system cloned into the pFASTBAC1 vector (Invitrogen, Carlsbad, Calif.). Recombinant MAT2A was isolated from the cell lysate of 150 g of infected cells using HP Ni sepharose column chromatography. Recombinant MAT2A homodimer was eluted with 250 and 500 mM imidazole, and fractions containing MAT2A were identified by sodium dodecyl sulfate polyacrylamide gel electrophoresis and pooled.
For determination of the inhibitory potency of compounds against the MAT2A homodimer, protein was diluted to […] in assay buffer (50 mM Tris, pH 8.0, 50 mM KCl, 15 mM MgCl2, 0.3 mM EDTA, 0.005% [w/v] bovine serum albumin [BSA]). Test compound was prepared in 100% dimethyl sulfoxide (DMSO) at 50× the desired final concentration. […] of compound dilution was added to 40 μL of enzyme dilution and the mixture was allowed to equilibrate for 60 minutes at 25° C. The enzymatic assay was initiated by the addition of 10 μL of substrate mix (500 μM ATP, pH 7.0, 400 μM L-methionine in 1× assay buffer), and the mixture was incubated for a further 60 minutes at 25° C. The reaction was halted and the liberated phosphate released by the enzyme in stoichiometric amounts by the production of S-adenosyl methionine (SAM) was measured using the PiColorLock Gold kit (Innova Biosciences, UK). Absolute product amounts were determined by comparison to a standard curve of potassium phosphate buffer, pH 8.0.

Experiment [1] has as its system SAM in HCT116 human colon carcinoma cell line engineered to delete the MTAP gene (MTAP −/−). Briefly: Cellular assay of target engagement (SAM) by LC-MS/MS. The settings on record: Homo sapiens, HCT-116, 72 h, IC50 score, read-out: Cell 72 h SAM Inhibition (MTAP −/−; Example 276). It is filed as cell-based. The procedure: Measurement of MAT2A activity in cells was made by direct quantitation of the abundance of the product of its enzymatic activity, SAM. Cancer cells were treated with candidate MAT2A inhibitors for a suitable incubation period, and the cells were then lysed using a reagent which quenched any further enzyme activity. Soluble metabolites including SAM were collected and SAM itself was directly measured from the lysate using quantitative LC-MS/MS.
A typical assay was performed using an HCT116 human colon carcinoma cell line which was genetically engineered to delete the MTAP gene (commercially available from Horizon Discovery). This cell line was utilized because it was determined that loss of the MTAP gene predicts sensitivity to MAT2A inhibitors. Cells were plated in 96-well dishes at appropriate cell density. Following 24 hours, cells were then treated with the candidate MAT2A inhibitor. Prior to addition to cells, the compound was first serially diluted in 100% DMSO, typically as a 3-fold serial dilution starting at 500× top dose with 10 dose points including DMSO only control. Compound was then transferred to a working stock plate in cell culture media by adding 5 μl of compound in DMSO to 495 μl of cell culture media. This working stock was then added to cells via a further 5-fold dilution, by adding 25 μl of working stock to 100 μl of cells in culture media. Following compound addition, cells were incubated at 37° C./5% CO2 for 72 hrs.
To quantitate SAM levels following compound treatment, cells were gently washed once in Ammonium Carbonate buffer (75 mM at pH 7.4), placed on dry ice, and lysed with metabolite extraction buffer (80% cold methanol and 20% water (v/v) with acetic acid at 1 M final concentration with 200 ng/mL deuterated d3-SAM as internal control). Following centrifugation at 4° C. at 3,200 rpm for 30 minutes, the supernatant was collected and stored at −80° C. until analysis by Liquid Chromatography with tandem Mass Spectrometry (LC-MS/MS). LC-MS/MS analysis was performed using an API6500 Mass Spectrometer (Sciex, Framingham, Mass., USA) operating in positive ion spray mode and equipped with a Waters UPLC Acquity (Waters, Milford, Mass., USA) BEH Amide column. Multiple Reaction Monitoring data was acquired for SAM and the d3-SAM standard, using a mass transition pair at m/z 399.2→250.1 and 402.2→250.1, respectively. In a typical LC-MS/MS analysis, the initial flow rate was 0.5 ml/min of 25% mobile phase A (acetonitrile and water at 5:95 (v/v) with 1% formic acid and 10 mM ammonium acetate) and 75% mobile phase B (acetonitrile and water at 95:5 (v/v) with 1% formic acid and 10 mM ammonium acetate), 0.2-0.5 minutes with 75%-35% mobile phase B, 25%-65% mobile phase A, at 0.5 min 65% mobile phase A and 35% mobile phase B, 1.0-1.1 minutes with 35%-75% mobile phase B, 65%-25% mobile phase A, at 1.1 min 25% mobile phase A and 75% mobile phase B with a total run time of 1.5 minutes.

The subject of another experiment is HCT116 MTAP−/−. Description: Inhibition of cellular proliferation (Cell Titer Glo), HCT116 MTAP−/−. Type of experiment: cell-based, human. The settings on record: Homo sapiens, HCT-116, 96 h, 4 days, IC50 score, read-out: 4 Day Relative Growth Inhibition (MTAP −/−; Example 277). The procedure: (§1) Test compound impact on cancer cell growth was assessed by treating cancer cells with compound for 4 days and then measuring proliferation using an ATP-based cell proliferation readout (Cell Titer Glo, Promega Corporation).
(§2) In a typical assay an isogenic pair of HCT116 human colon carcinoma cell lines which vary only in MTAP deletion status (HCT116 MTAP+/+ and HCT116 MTAP−/−) were plated in 96-well dishes at appropriate cell density. Following 24 hours, cells were then treated with the candidate MAT2A inhibitor. Prior to addition to cells, the compound was first serially diluted in 100% DMSO, typically as a 3-fold serial dilution starting at 500× top dose with 10 dose points including DMSO only control. Compound was then transferred to a working stock plate in cell culture media by adding 5 μl of compound in DMSO to 495 μl of cell culture media. This working stock was then added to cells via a further 5-fold dilution, by adding 25 μl of working stock to 100 μl of cells in culture media. Following compound addition, cells were incubated at 37° C./5% C02 for 4 days.
(§3) To measure inhibition of cellular proliferation, cells were allowed to equilibrate to room temperature for 30 minutes, and were then treated with 125 μl of Cell Titer Glo reagent. The plate was then covered with aluminum foil and shaken for 15 minutes to ensure complete mixing and full cell lysis. Luminescent signal was then measured using a plate-based luminometer Veritas version 1.9.2 using ATP standard curve to confirm assay reproducibility from run to run. This luminescence measure was converted to a proliferation index by subtracting from each data point the ATP luminescence signal measured from a bank (no cells) well and dividing by the ATP luminescence signal measured in 0.2% DMSO control well adjusted for signal in blank well. Compound activity was then represented as a percentage change in proliferation relative to a within-plate DMSO control against log10 of compound concentration in molar (M) units.

The test system of a further experiment is HCT116 MTAP+/+. Briefly: Inhibition of cellular proliferation (Cell Titer Glo), HCT116 MTAP+/+. It is filed as cell-based, human. Particulars: Homo sapiens, HCT-116, 96 h, 4 days, IC50 score, read-out: 4 Day Relative Growth Inhibition (MTAP +/+; Example 277). The procedure:
as §1, §2, §3
A general note: ATP-based viability assays read luminescence as a measure of living cells.

Bounds are passed on as bounds.

T1 sequence (P31153 whole entry): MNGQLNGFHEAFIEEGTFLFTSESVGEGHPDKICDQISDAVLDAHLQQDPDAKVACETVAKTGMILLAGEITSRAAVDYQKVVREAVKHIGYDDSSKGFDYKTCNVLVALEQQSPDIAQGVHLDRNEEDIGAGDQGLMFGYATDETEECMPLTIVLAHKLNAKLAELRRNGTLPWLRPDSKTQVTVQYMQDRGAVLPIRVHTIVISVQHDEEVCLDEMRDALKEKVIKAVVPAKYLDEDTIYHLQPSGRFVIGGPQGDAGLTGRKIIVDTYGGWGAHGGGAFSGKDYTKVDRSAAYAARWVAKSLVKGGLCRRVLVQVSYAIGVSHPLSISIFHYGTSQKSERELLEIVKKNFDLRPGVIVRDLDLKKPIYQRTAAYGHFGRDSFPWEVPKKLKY

Consider `Cn1cc2cc(-n3cc4cnc(NCC(F)(F)F)nc4c(-c4ccc(C(F)(F)F)cc4)c3=O)ccc2n1` [Example 161, 6-(2-methyl-2H-indazol-5-yl)-2-((2,2,2-trifluoroethyl)amino)-8-(4-(trifluoromethyl)phenyl)pyrido[4,3-d]pyrimidin-7(6H)-one], for which the IC50 at MAT2A homodimer was < 100 nM; in experiment [1], < 100 nM; with HCT116 MTAP−/− it was < 100 nM; in the experiment with HCT116 MTAP+/+, > 10000 nM.
Consider `Cn1cc2cc(-n3cc4ncc(OCC(F)F)nc4c(-c4ccc(OC(F)(F)F)nc4)c3=O)ccc2n1` [Example 143-A], for which the IC50 on MAT2A homodimer was < 100 nM; in experiment [1], < 100 nM; in the experiment on HCT116 MTAP−/−, < 100 nM; with HCT116 MTAP+/+, 100 to 10000 nM.
Take `CCOc1ccc2cn(-c3ccc4nn(C)cc4c3)c(=O)c(-c3ccc(OC(F)(F)F)nc3)c2n1` [Example 133-A]: the IC50 (at MAT2A homodimer; in experiment [1]; with HCT116 MTAP−/−) was < 100 nM in each case.
For the molecule `O=c1c(-c2ccc(Cl)cc2)c2nc(NCC(F)(F)F)ncc2cn1-c1ccc2nnccc2c1` [Example 131, 8-(4-chlorophenyl)-6-(cinnolin-6-yl)-2-(2,2,2-trifluoroethylamino)pyrido[4,3-d]pyrimidin-7(6)-one], the IC50 at MAT2A homodimer is < 100 nM.
Take `O=c1c(-c2ccc(Cl)cc2)c2nc(NCC(F)(F)F)ncc2cn1-c1ccn2nccc2c1` [Example 130, 8-(4-chlorophenyl)-6-(pyrazolo[1,5-a]pyridin-5-yl)-2-(2,2,2-trifluoroethylamino)pyrido[4,3-d]pyrimidin-7(6H)-one]: the IC50 at MAT2A homodimer was < 100 nM.
As to `O=c1c(-c2ccc(OCC(F)F)cc2)c2nc(NCC(F)(F)F)ncc2cn1-c1ccc2ncccc2c1` [Example 201, 8-(4-(2,2-difluoroethoxy)phenyl)-6-(quinolin-6-yl)-2-((2,2,2-trifluoroethyl)amino)pyrido[4,3-d]pyrimidin-7(6H)-one], the IC50 on MAT2A homodimer was 100 to 1000 nM.
Regarding `COc1ccc(N2Cc3cnc(NCC4CC4)nc3C3(CCN(Cc4cscn4)C3)C2=O)cc1` (stereo not shown) [Example 103, 2-((cyclopropylmethyl)amino)-6-(4-methoxyphenyl)-1′-(thiazol-4-ylmethyl)-5H-spiro[pyrido[4,3-d]pyrimidine-8,3′-pyrrolidin]-7(6H)-one], the IC50 on MAT2A homodimer lay in the range of 100 to 1000 nM.
Still for that read-out and setting: for `COc1ccc(-c2c(=O)n(-c3cnoc3)cc3cnc(NCC(F)(F)F)nc23)cc1` [Example 207, 6-(isoxazol-4-yl)-8-(4-methoxyphenyl)-2-((2,2,2-trifluoroethyl)amino)pyrido[4,3-d]pyrimidin-7(6H)-one] the value was 100 to 1000 nM; for `COc1ccc(N2Cc3cnc(NCC4CC4)nc3C3(CCN(Cc4cn[nH]c4)C3)C2=O)cc1` (stereo not shown) [Example 102, 1′-((1H-pyrazol-4-yl)methyl)-2-((cyclopropylmethyl)amino)-6-(4-methoxyphenyl)-5H-spiro[pyrido[4,3-d]pyrimidine-8,3′-pyrrolidin]-7(6H)-one], 1000 to 10000 nM; for `O=c1c(-c2ccc(OC(F)F)cc2)c2nc(SCC(F)(F)F)ncc2cn1-c1ccc2ncccc2c1` [Example 274, 8-(4-(difluoromethoxy)phenyl)-6-(quinolin-6-yl)-2-(2,2,2-trifluoroethylthio)pyrido[4,3-d]pyrimidin-7(6H)-one], < 100 nM.
Take `CC(C)n1cnc2ccc(-n3cc4cnc(NCC(F)(F)F)nc4c(-c4ccc(Cl)cc4)c3=O)cc21` [Example 128, 8-(4-chlorophenyl)-6-(1-isopropyl-1H-benzo[d]imidazol-6-yl)-2-(2,2,2-trifluoroethylamino)pyrido[4,3-d]pyrimidin-7(6H)-one]: the IC50 on MAT2A homodimer is < 100 nM.
The same measure, in the same setting: for `Cn1cnc2ccc(-n3cc4cnc(OCC(F)(F)F)nc4c(-c4ccc(OC(F)F)cc4)c3=O)cc21` [Example 263, 8-(4-(difluoromethoxy)phenyl)-6-(1-methyl-1H-benzo[d]imidazol-6-yl)-2-(2,2,2-trifluoroethoxy)pyrido[4,3-d]pyrimidin-7(6H)-one] the value was < 100 nM.
On the same count and under the same terms, for `COc1ccc(N2Cc3cnc(NCC(F)(F)F)nc3C3(CCN(Cc4cc[nH]n4)C3)C2=O)cc1` (stereo not shown) [Example 110] the value was 100 to 1000 nM; for `Cn1cc2cc(-n3cc4cnc(NC5CCC5)nc4c(-c4ccc(OC(F)F)cc4)c3=O)ccc2n1` [Example 174, 2-(cyclobutylamino)-8-(4-(difluoromethoxy)phenyl)-6-(2-methyl-2H-indazol-5-yl)pyrido[4,3-d]pyrimidin-7(6H)-one], < 100 nM; for `CCOc1ncc2cn(-c3ccc4ncccc4c3)c(=O)c(-c3ccc(OC(F)F)cc3)c2n1` [Example 271, 8-(4-(difluoromethoxy)phenyl)-2-ethoxy-6-(quinolin-6-yl)pyrido[4,3-d]pyrimidin-7(6H)-one], < 100 nM.
`Cn1cc2cc(-n3cc4cnc(NCC(F)F)nc4c(-c4ccc(OC(F)F)cc4)c3=O)ccc2n1` [Example 175, 2-((2,2-difluoroethyl)amino)-8-(4-(difluoromethoxy)phenyl)-6-(2-methyl-2H-indazol-5-yl)pyrido[4,3-d]pyrimidin-7(6H)-one]: the IC50 on MAT2A homodimer was < 100 nM.
As for `O=c1c(-c2ccc(C3CC3)cc2)c2nc(NCC(F)(F)F)ncc2cn1-c1ccc2nccn2c1` [Example 165, 8-(4-cyclopropylphenyl)-6-(imidazo[1,2-a]pyridin-6-yl)-2-((2,2,2-trifluoroethyl)amino)pyrido[4,3-d]pyrimidin-7(6)-one], the IC50 on MAT2A homodimer was < 100 nM.
